Experimental data from ChEMBL document CHEMBL4270551, “Biological evaluation and structure-activity relationships of imidazole-based compounds as antiprotozoal agents” (Eur J Med Chem, 2018).
Active and inactive are the calls of the source. No cut-off for these calls is given here.

What was measured:
[1] = test system: Plasmodium falciparum; experiment: Antiprotozoal activity against erythrocytic stage of chloroquine and pyrimethamine resistant Plasmodium falciparum K1 assessed as reduction in [3H]-hypoxanthine incorporation preincubated for 24 hrs followed by [3H]-hypoxanthine addition measured after 24 hrs by scintillation counting method; assay type: functional, organism-based
[2] = test system: Trypanosoma cruzi; experiment: Antitrypanosomal activity against Trypanosoma cruzi Tulahuen strain C2C4 amastigote forms infected in rat L6 cells after 96 hrs by CPRG/Nonidet reagent based photometric method; assay type: functional, organism-based; details: Tulahuen strain C2C4, L6, 96 h
[3] = Cytotoxicity against rat L6 cells after 72 hrs by alamar blue staining based fluorescence assay; assay type: cell-based
[4] = test system: Leishmania donovani; experiment: Antileishmanial activity against Leishmania donovani MHOM/ET/67/L82 axenic amastigotes after 72 hrs by alamar blue staining based fluorescence assay; assay type: functional, organism-based; details: MHOM/ET/67/L82, 72 h
[5] = Selectivity index, ratio of CC50 for rat L6 cells to IC50 for erythrocytic stage of chloroquine and pyrimethamine resistant Plasmodium falciparum K1; assay type: toxicity; details: read-out: Ratio CC50/IC50
[6] = test system: Trypanosoma brucei rhodesiense; experiment: Antiprotozoal activity against Trypanosoma brucei rhodesiense STIB900 trypomastigote after 72 hrs by Alamar Blue assay; assay type: functional, organism-based; details: STIB900, 72 h
[7] = Selectivity index, ratio of CC50 for rat L6 cells to IC50 for Trypanosoma cruzi Tulahuen strain C2C4 amastigote forms infected in rat L6 cells; assay type: toxicity, cell-based; details: read-out: Ratio CC50/IC50
[8] = Selectivity index, ratio of CC50 for rat L6 cells to IC50 for Leishmania donovani MHOM/ET/67/L82 axenic amastigotes; assay type: toxicity; details: read-out: Ratio CC50/IC50
[9] = Selectivity index, ratio of CC50 for rat L6 cells to IC50 for Trypanosoma brucei rhodesiense STIB900 trypomastigote; assay type: toxicity; details: read-out: Ratio CC50/IC50
[10] = biological target: Sterol 14-alpha demethylase (Trypanosoma cruzi (strain CL Brener)) (UniProt Q7Z1V1); experiment: Binding affinity to Trypanosoma cruzi CYP51 at 5 to 10 uM by 96-well based UV-vis spectroscopic method
Chain of Sterol 14-alpha demethylase (Trypanosoma cruzi (strain CL Brener)) (Q7Z1V1 whole entry, looked up): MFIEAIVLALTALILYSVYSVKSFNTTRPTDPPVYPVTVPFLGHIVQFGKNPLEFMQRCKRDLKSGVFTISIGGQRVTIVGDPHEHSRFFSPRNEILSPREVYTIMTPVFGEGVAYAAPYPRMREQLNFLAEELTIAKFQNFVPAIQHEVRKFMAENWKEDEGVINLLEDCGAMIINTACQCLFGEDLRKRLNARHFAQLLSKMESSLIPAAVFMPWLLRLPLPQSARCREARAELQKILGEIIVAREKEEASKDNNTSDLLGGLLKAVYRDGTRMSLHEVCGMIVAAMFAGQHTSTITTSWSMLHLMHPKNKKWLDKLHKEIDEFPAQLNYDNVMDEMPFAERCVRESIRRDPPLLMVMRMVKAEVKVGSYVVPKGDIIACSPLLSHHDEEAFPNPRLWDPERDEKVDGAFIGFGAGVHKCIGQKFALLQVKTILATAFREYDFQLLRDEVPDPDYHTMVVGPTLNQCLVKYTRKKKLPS

[11] = test system: Mus musculus; experiment: Toxicity in Balb/c mouse infected with Trypanosoma cruzi CL Brener assessed as hunched posture at 25 mg/kg, ip bid for 4 days measured during compound dosing; assay type: organism-based; details: in vivo, 96 h
[12] = test system: Mus musculus; experiment: Toxicity in Balb/c mouse infected with Trypanosoma cruzi CL Brener assessed as weight loss at 25 mg/kg, ip bid for 4 days measured during compound dosing; assay type: organism-based; details: in vivo, 96 h
[13] = test system: Mus musculus; experiment: Toxicity in Balb/c mouse infected with Trypanosoma cruzi CL Brener assessed as reduction in mobility at 25 mg/kg, ip bid for 4 days measured during compound dosing; assay type: organism-based; details: in vivo, 96 h
[14] = test system: Trypanosoma cruzi; experiment: Potency index, ratio of benznidazole IC50 to test compound IC50 for Trypanosoma cruzi Tulahuen strain C2C4 amastigote forms infected in rat L6 cells; assay type: functional
[15] = test system: Mus musculus; experiment: Toxicity in Balb/c mouse infected with Trypanosoma cruzi CL Brener assessed as lack of grooming at 25 mg/kg, ip bid for 4 days measured during compound dosing; assay type: organism-based; details: in vivo, 96 h
[16] = biological target: Sterol 14-alpha demethylase (Trypanosoma cruzi (strain CL Brener)) (UniProt Q7Z1V1); experiment: Binding affinity to Trypanosoma cruzi CYP51 by quartz cuvette based UV-vis spectroscopic method
[17] = test system: Trypanosoma cruzi; experiment: Antitrypanosomal activity against luciferase-expressing Trypanosoma cruzi CL Brener infected in Balb/c mouse assessed as reduction in parasitemia at 2.5 mg/kg, ip bid for 4 days by bioluminescence assay relative to control; assay type: functional; parameters: scale not given: the % may be the effect or the level left

Structure (SMILES)	IC50 [1] [µM]	IC50 [2] [µM]	CC50 at 72 h [3] [µM]	IC50 [4] [µM]	selectivity ratio [5]	IC50 [6] [µM]	selectivity ratio [7]	selectivity ratio [8]	selectivity ratio [9]	Activity [10]	Activity [11]	Activity [12]	Activity [13]	Ratio IC50 [14]	Activity [15]	Activity [16]	Activity [17] [%]
Clc1ccc(-c2c[nH]cc2C(c2ccc(Cl)cc2)n2ccnc2)cc1 (stereo unspecified)	0.13	0.057	4.83	7.01	37	15.9	85	1									
Cc1ccc(C(c2ccn(-c3ccc(F)cc3)c2)n2ccnc2)cc1 (stereo unspecified)	2.17	2.96	60.6	27.6	28	15.8	21	2	4								
Nc1nc(N)nc(Nc2ccc([As]3SCC(CO)S3)cc2)n1 (stereo unspecified) [MELARSOPROL]						0.0088											
CC(C)(C)c1ccc(-c2c[nH]cc2C(c2ccc(Cl)cc2Cl)n2ccnc2)cc1 (stereo unspecified)	0.38	12.8	22.9	6.98	60	41.2	2	3									
COc1cc([C@@H]2c3cc4c(cc3[C@H](O)[C@H]3COC(=O)[C@H]23)OCO4)cc(OC)c1OC [PODOFILOX]			0.007														
FC(F)(F)c1ccc(-c2c[nH]cc2C(c2ccc(Cl)cc2Cl)n2ccnc2)cc1 (stereo unspecified)	0.14	0.05	9.4	12	67	11.3	188										
Clc1ccc(C(c2c[nH]cc2-c2ccc(-c3ccccc3)cc2)n2ccnc2)c(Cl)c1 (stereo unspecified)	> 11	32.6	> 202	12.3		17.7											
O=C(Cn1ccnc1[N+](=O)[O-])NCc1ccccc1 [BENZNIDAZOLE]		1.65															
CCCCCCCCCCCCCCCCOP(=O)([O-])OCC[N+](C)(C)C [MILTEFOSINE]				0.56													
CSc1ccc(-c2c[nH]cc2C(c2ccc(Cl)cc2Cl)n2ccnc2)cc1 (stereo unspecified)	0.24	0.043	7.22	5.12	30	15.8	168	1									
Cc1ccc(C(c2ccn(-c3ccc(Cl)cc3)c2)n2ccnc2)cc1 (stereo unspecified)	2.53	1.72	42.6	12.5	17	53.5	25	3									
N#Cc1ccc(-c2c[nH]cc2C(c2ccc(Cl)cc2Cl)n2ccnc2)cc1 (stereo unspecified)	0.66	10	15	8.75	23	11.7	2	2	1								
c1ccc(C(c2ccn(-c3ccccc3)c2)n2ccnc2)cc1 (stereo unspecified)	4.14	3.91	80.8	14.5	20	35.1	21	6	2								
Clc1ccc(C(c2c[nH]cc2-c2ccc(Cl)c(Cl)c2)n2ccnc2)c(Cl)c1 (stereo unspecified)	0.14	0.021	3.64	4.6	26	12.5	173	1		Active							
Clc1ccc(-c2c[nH]cc2C(c2ccc(Cl)cc2Cl)n2ccnc2)c(Cl)c1 (stereo unspecified)	0.18	0.034	9.86	1.19	55	10.5	290	8		Active							
Fc1ccc(C(c2ccn(-c3ccc(F)cc3)c2)n2ccnc2)cc1 (stereo unspecified)	4.44	4.53	87.1	45.9	20	43.8	19	2	2								
Clc1ccc(C(c2c[nH]cc2-c2cccc3ccccc23)n2ccnc2)c(Cl)c1 (stereo unspecified)	0.33	0.096	12.3	1.91	37	12	128	6	1								
Fc1ccc(-n2ccc(C(c3ccc(Cl)cc3)n3ccnc3)c2)cc1 (stereo unspecified)	3.16	3.3	47.5	10.4	15	16.9	14	5	3								
Clc1ccc(C(c2c[nH]cc2-c2ccc(-c3ccncc3)cc2)n2ccnc2)c(Cl)c1 (stereo unspecified)	0.29	2.42	15.5	7.52	53	9.74	6	2	2								
Cn1cc(-c2ccc(Cl)cc2)c(C(c2ccc(Cl)cc2Cl)n2ccnc2)c1 (stereo unspecified)	0.17	0.002	5.23	4.3	31	36.5	2620	1		Active	Non-Toxic	Non-Toxic	Non-Toxic	825	Non-Toxic	Active	98.5
O=[N+]([O-])c1ccc(-c2c[nH]cc2C(c2ccc(Cl)cc2Cl)n2ccnc2)cc1 (stereo unspecified)	0.48	3.22	16.9	7.82	35	5.57	5	2	3								
Fc1ccc(C(c2ccn(-c3ccc(Cl)cc3)c2)n2ccnc2)cc1 (stereo unspecified)	3.98	3.75	63.1	15.8	16	36.7	17	4	2								
Clc1ccc(-c2c[nH]cc2C(c2ccc(Cl)cc2Cl)n2ccnc2)cc1 (stereo unspecified)	0.16	0.035	9.61	3.77	60	17.3	275	3		Active							
Fc1ccc(-n2ccc(C(c3ccccc3)n3ccnc3)c2)cc1 (stereo unspecified)	5.36	6.14	104	31.5	19	20.4	17	3	5								
